In PubChem BioAssay (NCI):
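Where inhibition never reached the appropriate level, the endpoint shown equals the highest concentration tested. Otherwise, values were interpolated linearly from a five-concentration, 48-hour dose response in 96-well plates. The concentration for full growth arrest is given as TGI.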

How the values were obtained:
Assay in all cases: inhibition of tumour cell growth, NCI panel, 48 h
EKVX NSCLC = tested on: EKVX NSCLC
HCT-15 colon = tested on: HCT-15 colon
HL-60(TB) leukemia = tested on: HL-60(TB) leukemia
HT29 colon = tested on: HT29 colon
KM12 colon = tested on: KM12 colon
MCF7 breast = tested on: MCF7 breast
MDA-MB-435 = tested on: MDA-MB-435
MDA-N = tested on: MDA-N
NCI-H226 lung = tested on: NCI-H226 lung
NCI-H23 lung = tested on: NCI-H23 lung
NCI/ADR-RES ovarian = tested on: NCI/ADR-RES ovarian
OVCAR-3 ovarian = tested on: OVCAR-3 ovarian
OVCAR-4 ovarian = tested on: OVCAR-4 ovarian
OVCAR-8 ovarian = tested on: OVCAR-8 ovarian
RXF 393 renal = tested on: RXF 393 renal
TK-10 renal = tested on: TK-10 renal

Row | Structure (SMILES) | TGI (EKVX NSCLC) [µM] | TGI (HCT-15 colon) [µM] | TGI (HL-60(TB) leukemia) [µM] | TGI (HT29 colon) [µM] | TGI (KM12 colon) [µM] | TGI (MCF7 breast) [µM] | TGI (MDA-MB-435) [µM] | TGI (MDA-N) [µM] | TGI (NCI-H226 lung) [µM] | TGI (NCI-H23 lung) [µM] | TGI (NCI/ADR-RES ovarian) [µM] | TGI (OVCAR-3 ovarian) [µM] | TGI (OVCAR-4 ovarian) [µM] | TGI (OVCAR-8 ovarian) [µM] | TGI (RXF 393 renal) [µM] | TGI (TK-10 renal) [µM]
1 | CC(=NNC(=S)Nc1ccc(C)cc1)c1cccc(C(C)=NNC(=S)Nc2ccc(C)cc2)n1 | > 100 | > 100 | 15.7 | > 100 | > 100 | > 100 | > 100 | > 100 | 73.6 | > 100 | 58.8 | 14.3 | 89.1 | 34.5 | 72 | > 100
2 | CNc1nc2n(CCO)c(-c3ccccc3)c(-c3ccccc3)nc-2c(=O)n1 | > 50 | > 50 |  | > 50 | > 50 | > 50 | > 50 | > 50 | > 50 | > 50 | > 50 | > 50 | > 50 | > 50 | > 50 | > 50
3 | COc1cc(OC)c2c(=O)c(OC)c(-c3ccc4c(c3)OCO4)oc2c1 | > 100 | > 100 | > 100 | > 100 | > 100 | > 100 | > 100 | > 100 | > 100 | 64 | > 100 | > 100 | > 100 | > 100 | 72.6 | > 100
4 | O=[N+]([O-])c1cccc2nc3ccccc3c(NCCC[N+]3([O-])CCOCC3)c12 | 2.01 | 6.42 | 1.02 | 0.761 | 0.538 | 0.725 | 0.331 | 0.277 | 0.529 | 0.316 | 39.2 | 0.474 | 0.455 | 3.44 | 0.366 | 3.33
5 | COc1cc(OC)cc(-c2nc3cc(F)ccc3s2)c1 | 43.5 | > 100 |  | > 100 | > 100 | > 100 | > 100 | > 100 | 37.8 | 28.4 | > 100 | 86.3 | > 100 | 97.8 | 36.6 | 33.2
6 | COC(=O)C1=C(C(=O)OC)c2cc(OC)ccc2C(C(=S)N(C)C)S1 (stereo not drawn) | > 100 | > 100 |  |  | > 100 | > 100 | > 100 | > 100 | > 100 | > 100 | > 100 | > 100 | > 100 | > 100 | > 100 | > 100
7 | CC(C)(C)c1ccc(-c2nc3ccc(Cl)cc3c(=O)o2)cc1 | 70 | 49.5 | 42.4 | 63.8 | 19.2 | 61.7 | 56.5 | 64 |  | 35 | 67.1 | 34.6 | 63.1 | 49.3 | 87.1 | > 100
8 | COc1ccc(C2C3=C(Nc4ncnn42)c2ccccc2OC3c2ccccc2)cc1 (stereo not drawn) |  | > 100 | 8.92 |  | 76.5 | > 100 | 23.7 | 44.1 |  | > 100 | > 100 | > 100 |  | > 100 | 48.1 | 
